{
  "source": "patent US5877185A",
  "about": "“Synergistic compositions useful as anti-tumor agents” (priority 1995, dated 1999)",
  "key": {"[1]": {"assay": "metabolic conversion of INO2 BA to INH2 BA by 855-2 cells", "assay_type": "in vitro ADME", "conditions": "855-2 cells; 120 μM INO2 BA, 37° C.; read-out: rate of reduction of the nitro to the amino end-product", "procedure": "(§1) The cell metabolites of INO2 BA metabolism were identified. A suspension of 855-2 cells (6), 150×10^6 cells in ml of RPMI-1640 medium, was dosed with INO2 BA to a concentration of 120 μM, incubated at 37° C. for 18 hr, and then freeze-dried, extracted 3 times with EtOH (10 ml each time) for 30 min and centrifuged. The extract was rotary evaporated to dryness, redissolved in EtOH (3.0 ml), microfuged to remove small particles, and aliquots (200 μl) injected into HPLC. In control experiments, instead of incubating the drug-dosed cell suspension it was immediately frozen, freeze-dried and extracted. HPLC analyses were performed essentially as reported earlier, except the pH of the buffers was 4.3. Buki et al., FEBS Lett. 290:181-185 (1991). Upon sample injection the gradient started from 100%A to 100%B in 30 min, to 50%B/50%C in 15 min, to 100%C in 3 min. Retention times of synthetic standards were: 4-iodo-3-hydroxylaminobenzamide 18.7 min; 4-iodo-3-aminobenzamide (\"INH2 BA\") 24.7 min; INO2 BA 34.5 min; INOBA 36.5 min and 6,6'-diiodo-3,3'-dicarbamoylazoxybenzene 46.9 min."}, "855-2 cells": {"system": "855-2 cells", "assay": "metabolic conversion of INO2 BA to INH2 BA by 855-2 cells", "assay_type": "in vitro ADME", "conditions": "120 μM INO2 BA, 18 hr, 37° C.", "procedure": "as §1"}, "MDA-468": {"system": "MDA-468", "assay": "cytotoxicity of INO2 BA with and without BSO, MDA-468", "assay_type": "cell-based", "conditions": "Homo sapiens", "procedure": "(§2) The concentration of BSO was 1 mM for all cell lines except HT 144, where the concentration was 0.25 mM. Cells were seeded in the recommended growth medium at a density of 1.5×10^4 cell/cm^2 into 2 cm^2 wells. Drugs were added simultaneously 4 hours after seeding, and incubation was continued for 48 hours at 37° C. in a 5% CO2 atmosphere. For assessment of drug effects cells were detached by trypsinization and counted in a hemacytometer.\n(§3) Cell lines Nos. 1-4 were obtained from Dr. C. Benz, University of California, San Francisco. MDA 468 and MCF-7 human mammary cancer lines, MCF-7-B-ADR drug-resistant mammary cancer line, Du 145 drug-resistant human prostate cancer line, HT 144 human melanoma cell line, Hep-G2 human hepatocellular carcinoma line, and PC-12 rat pheochromocytoma line were obtained from the University of California Cell Culture Facility."}, "MCF-7-B-ADR": {"system": "MCF-7-B-ADR", "assay": "cytotoxicity of INO2 BA with and without BSO, MCF-7-B-ADR", "assay_type": "cell-based", "conditions": "Homo sapiens", "procedure": "as §2, §3"}, "Du 145": {"system": "Du 145", "assay": "cytotoxicity of INO2 BA with and without BSO, Du 145", "assay_type": "cell-based", "conditions": "Homo sapiens", "procedure": "as §2, §3"}, "HT 144": {"system": "HT 144", "assay": "cytotoxicity of INO2 BA with and without BSO, HT 144", "assay_type": "cell-based", "conditions": "Homo sapiens", "procedure": "as §2, §3"}, "L 1210": {"system": "L 1210", "assay": "cytotoxicity of INO2 BA with and without BSO, L 1210", "assay_type": "cell-based, murine", "conditions": "Mus musculus, L1210, INO2 BA alone, 48 hours", "procedure": "as §2, §3"}, "CEM-4": {"system": "CEM-4", "assay": "cytotoxicity of INO2 BA with and without BSO, CEM-4", "assay_type": "cell-based", "conditions": "Homo sapiens", "procedure": "as §2, §3"}, "HL 60": {"system": "HL 60", "assay": "cytotoxicity of INO2 BA with and without BSO, HL 60", "assay_type": "cell-based", "conditions": "Homo sapiens, INO2 BA alone, 48 hours", "procedure": "as §2, §3"}, "U 937": {"system": "U 937", "assay": "cytotoxicity of INO2 BA with and without BSO, U 937", "assay_type": "cell-based", "conditions": "Homo sapiens, INO2 BA alone, 48 hours", "procedure": "as §2, §3"}, "L 1210 cells": {"system": "L 1210 cells", "assay": "cytotoxic effect of IABP and INO2 BA, alone and combined, on L 1210 cell growth", "assay_type": "cell-based, murine", "conditions": "Mus musculus, L1210, 72 h; INO2 BA 64 μM, three days; read-out: decrease of L 1210 cell proliferation", "procedure": "64 μM INO2 BA decreased L 1210 cell proliferation by approximately 80% over a three day growth period."}, "[2]": {"system": "HIV in intact human macrophages", "conditions": "Kun et al., Abstract 422A; cited from earlier work"}, "HIV-1 (LAV strain)": {"system": "HIV-1 (LAV strain)", "assay": "in vitro anti-retroviral testing (HIV-1 inactivation) in human peripheral lymphocytes (PBL)", "assay_type": "cell-based", "procedure": "Both 6-NOBP and NOBA were tested on viral growth of HIV-1 (LAV strain) in phytohemagglutinin-stimulated human peripheral lymphocytes (PBL). An HIV-1 stock having an infectivity titer of 100,000 TCID50 was incubated for 30 min. at 22° C. with either of the drugs. Control HIV samples, containing no drugs, were incubated in the same manner. […] At the end of this incubation cultures were assayed for productive infection by an immunoassay for HIV-1 antigens and by reverse transcriptase as described in McDougal et al., J. Immunol. Methods 76:171-183 (1985). Virus titers were expressed as percentile values (percent infected cultures) compared to the controls, containing HIV dilutions which were not preincubated with the C-nitroso drugs. In a separate series of experiments, HIV-1 dilutions and C-nitroso drugs (see upper abscissa) were not preincubated but were added simultaneously to lymphocytes in exactly the same concentrations as described previously (i.e., following preincubation) and viral growth monitored 9 days later."}, "[3]": {"system": "leukemic and other malignant human cells", "conditions": "cited from earlier work"}, "[4]": {"conditions": "INO2 BA alone, 48 hours, read-out: I50"}},
  "data": [
    {"smiles": "NC(=O)c1ccc(I)c([N+](=O)[O-])c1", "note": "[INO2 BA, 4-iodo-3-nitrobenzamide]", "values": [
      {"measurement": "metabolised at 18 h, 120 µM", "setting": "[1]", "result": "2.2 ± 0.2", "unit": "%"},
      {"measurement": "identified metabolite", "setting": "855-2 cells", "result": "the only identified metabolite was INH2 BA"},
      {"measurement": "IC100", "setting": "MDA-468; 48 h, read-out: LD100", "result": 180, "unit": "µM"},
      {"measurement": "IC50", "setting": "MDA-468; [4]", "result": 80, "unit": "µM"},
      {"measurement": "IC100", "setting": "MCF-7-B-ADR; 48 h, read-out: LD100", "result": 220, "unit": "µM"},
      {"measurement": "IC50", "setting": "MCF-7-B-ADR; [4]", "result": 90, "unit": "µM"},
      {"measurement": "IC100", "setting": "Du 145; DU-145, 48 h, read-out: LD100", "result": 250, "unit": "µM"},
      {"measurement": "IC50", "setting": "Du 145; DU-145, INO2 BA alone, 48 hours, read-out: I50", "result": 120, "unit": "µM"},
      {"measurement": "IC100", "setting": "HT 144; HT-144, 48 h, read-out: LD100", "result": 200, "unit": "µM"},
      {"measurement": "IC50", "setting": "HT 144; HT-144, INO2 BA alone, 48 hours, read-out: I50", "result": 100, "unit": "µM"},
      {"measurement": "IC50", "setting": "L 1210; read-out: I50", "result": 128, "unit": "µM"},
      {"measurement": "IC100", "setting": "L 1210; read-out: LD100", "result": 256, "unit": "µM"},
      {"measurement": "IC100", "setting": "CEM-4; CEM-4, 48 h, read-out: LD100", "result": 196, "unit": "µM"},
      {"measurement": "IC50", "setting": "CEM-4; CEM-4, INO2 BA alone, 48 hours, read-out: I50", "result": 80, "unit": "µM"},
      {"measurement": "IC50", "setting": "HL 60; read-out: I50", "result": 70, "unit": "µM"},
      {"measurement": "IC100", "setting": "HL 60; read-out: LD100", "result": 125, "unit": "µM"},
      {"measurement": "IC50", "setting": "U 937; read-out: I50", "result": 65, "unit": "µM"},
      {"measurement": "IC100", "setting": "U 937; read-out: LD100", "result": 150, "unit": "µM"},
      {"measurement": "inhibition at 64 µM", "setting": "L 1210 cells", "result": "~80", "unit": "%"},
      {"measurement": "inhibition of HIV replication", "setting": "[2]", "result": "readily inhibited"}
    ]},
    {"smiles": "NC(=O)c1cccc(N=O)c1", "note": "[NOBA, 3-nitrosobenzamide]", "values": [
      {"measurement": "TCID50 (calculated infectious titer after treatment)", "setting": "HIV-1 (LAV strain); 100 μM", "result": 11, "unit": "TCID50"},
      {"measurement": "decrease of relative amount of infectious virus available to cause 50% infected cultures", "setting": "HIV-1 (LAV strain); 30 min. at 22° C., FIG. 7A", "result": 4, "unit": "log units"},
      {"measurement": "log reduction at 100 µM", "setting": "HIV-1 (LAV strain); Human immunodeficiency virus 1, Lymphocyte, 0.5 h, 100 μM, of TCID50, read-out: Decrease", "result": 4.2},
      {"measurement": "inhibition at 100 µM", "setting": "HIV-1 (LAV strain); Human immunodeficiency virus 1, Lymphocyte, 100 μM", "result": "> 100", "unit": "%"},
      {"measurement": "suppression of proliferation", "setting": "[3]", "result": "completely suppressed"}
    ]}
  ]
}
